{
  "source": "patent US8332028B2",
  "about": "“Protected lithium electrodes for electro-transport drug delivery” (PolyPlus Battery Company, priority 2006, dated 2012)",
  "experiment": "in vitro Li delivery through pig skin in a flow-through Li-AgCl cell (protected Li metal foil donor electrode)",
  "type": "in vitro ADME",
  "experimental": "The glass receptor compartment was similar to one described by Phipps et al. (1988) Solid State Ionics 28-30: 1778-1783, for ionophoretic drug delivery experiments. The receptor compartment was filled with RPMI-1640 Medium (Sigma Aldrich). The antibiotic gentamicin sulphate was added to the receptor compartment fluid to inhibit bacterial growth.\nThe prepared skin was stored in RPMI-1640 medium overnight before the start of the experiment. The skin was placed on the receptor chamber and kept in place and stretched out with an O-ring around the neck of the chamber. The visceral surface of the skin was in contact with the receptor fluid.\nA square 1 cm×1 cm silver chloride cathode with a capacity of approximately 40 mAh was introduced into the receptor chamber through a port. A multi-channel peristaltic pump was used to create a flow of the RPMI-1640 medium through receptor compartments of several cells. In our experiments we used a flow rate of 2.1 mL/hr. Periodic sampling of the receptor compartment fluid was performed automatically. The temperature inside the water-jacketed receptor compartment was kept at 37° C. The fluid inside the receptor compartment was stirred with a magnetic stir bar.\nThe donor chamber was positioned over the skin. It contained Li metal foil and a protective architecture enabling the use of Li in an aqueous environment. The protective architecture comprised a 150 micron thick barrier layer composed of a glass ceramic solid electrolyte plate (AG-01 material from OHARA Corporation with ionic conductivity of ˜10^−4 S/cm) and an anolyte interlayer located between the Li surface and the glass ceramic plate barrier layer. […]\nThe donor-acceptor chamber assembly was kept in place using a clamp. […] Li content in the fluid samples taken from receptor compartment was analyzed by ICP-MS.\nThe rate of Li delivery into the receptor compartment was calculated as a product of Li concentration and the flow rate of the receptor fluid.",
  "data": [
    {"smiles": "[Li]", "note": "[Li, lithium]", "values": [
      {"measurement": "Li content in receptor fluid samples, comparison of current densities", "setting": "0.2 mA/cm^2 vs 0.1 mA/cm^2, FIG. 9", "value": "significantly larger for the rate of 0.2 mA/cm^2 than for 0.1 mA/cm^2"},
      {"measurement": "initial Li content of the receptor solution", "setting": "before current passing", "value": "≤ 6", "unit": "µg/L"},
      {"measurement": "Li content in receptor fluid samples over time", "setting": "constant current 0.1 mA/cm^2 (27 hrs) and 0.2 mA/cm^2 (24 hrs), 37° C., RPMI-1640 receptor fluid, ICP-MS, FIG. 9", "value": "gradually increased over time"}
    ]}
  ]
}
